Each molecule was assayed against T1, human GlyT1c transporter (Homo sapiens, UniProt P48067) (assay: Radioligand binding assay using recombinant CHO cell membranes expressing human GlyT1). Settings: radioligand binding to human GlyT1c transporter-expressing membranes.
T1 construct: expressed in transfected cells; host or cells: CHO cells (recombinant; line hGlyT1c_5_CHO is named for the uptake assay)
T1 sequence (P48067 1-706): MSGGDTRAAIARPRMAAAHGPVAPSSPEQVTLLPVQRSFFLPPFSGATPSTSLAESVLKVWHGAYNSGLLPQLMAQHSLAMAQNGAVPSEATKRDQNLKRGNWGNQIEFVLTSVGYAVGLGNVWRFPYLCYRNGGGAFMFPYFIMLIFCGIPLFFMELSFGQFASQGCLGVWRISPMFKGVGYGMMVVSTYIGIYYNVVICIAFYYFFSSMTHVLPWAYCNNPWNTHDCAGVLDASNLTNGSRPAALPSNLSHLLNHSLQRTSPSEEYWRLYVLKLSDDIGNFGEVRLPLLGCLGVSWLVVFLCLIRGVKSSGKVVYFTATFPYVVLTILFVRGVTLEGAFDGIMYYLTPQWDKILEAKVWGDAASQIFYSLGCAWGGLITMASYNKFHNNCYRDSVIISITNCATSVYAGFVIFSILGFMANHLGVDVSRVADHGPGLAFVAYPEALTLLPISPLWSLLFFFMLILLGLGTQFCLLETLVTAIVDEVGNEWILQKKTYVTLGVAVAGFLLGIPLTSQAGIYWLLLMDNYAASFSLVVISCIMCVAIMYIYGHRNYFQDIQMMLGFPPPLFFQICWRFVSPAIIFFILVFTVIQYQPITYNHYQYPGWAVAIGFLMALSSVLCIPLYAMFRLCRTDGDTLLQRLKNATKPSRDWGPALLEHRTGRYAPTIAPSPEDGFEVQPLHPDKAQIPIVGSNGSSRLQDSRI
Source text: 2. Radioligand binding assays using recombinant CHO cell membranes expressing human GlyT1: […]

`Cn1cnc(S(=O)(=O)N2C[C@H](Nc3cc(OCc4ccccc4)c(F)cn3)[C@@H](c3ccccc3)C2)c1` [Example 776, 4-(benzyloxy)-5-fluoro-N-{(3R,4S)-1-[(1-methyl-1H-imidazol-4-yl)sulfonyl]-4-phenylpyrrolidin-3-yl}pyridin-2-amine] and `Cc1cc(N[C@H]2CN(S(=O)(=O)c3cn(C)cn3)C[C@@H]2c2ccccc2)ncn1` [Example 637, 6-methyl-N-{(3R,4S)-1-[(1-methyl-1H-imidazol-4-yl)sulfonyl]-4-phenylpyrrolidin-3-yl}pyrimidin-4-amine] cannot be ordered by Ki: ≤ 0.01 µM for the first, ≤ 10 µM for the second.

`Cn1cnc(S(=O)(=O)N2C[C@@H](CNc3ccc(F)cc3)[C@H](c3ccc(F)cc3)C2)c1` (relative stereo) [Example 367, 4-Fluoro-N-({trans-4-(4-fluorophenyl)-1-[(1-methyl-1H-imidazol-4-yl)sulfonyl]pyrrolidin-3-yl}methyl)aniline] and `Cn1cnc(S(=O)(=O)N2C[C@@H](COc3ccc(F)cc3)[C@H](c3ccc(F)cc3)C2)c1` (relative stereo) [Example 348, 4-{[Trans-3-[(4-fluorophenoxy)methyl]-4-(4-fluorophenyl)pyrrolidin-1-yl]sulfonyl}-1-methyl-1H-imidazole] cannot be ordered by Ki: ≤ 0.1 µM for the first, ≤ 0.1 µM for the second.

`CCCOC(=O)N[C@H]1CN(S(=O)(=O)c2cn(C)cn2)C[C@@H]1c1ccccc1` [Example 542, propyl {(3R,4S)-1-[(1-methyl-1H-imidazol-4-yl)sulfonyl]-4-phenylpyrrolidin-3-yl}carbamate] and `Cc1ccc(C(=O)N[C@@H]2CN(S(=O)(=O)c3cn(C)cn3)C[C@H]2c2ccccc2)cc1` (relative stereo) [Example 24, 4-methyl-N-{trans-1-[(1-methyl-1H-imidazol-4-yl)sulfonyl]-4-phenylpyrrolidin-3-yl}benzamide] cannot be ordered by Ki: ≤ 10 µM for the first, ≤ 10 µM for the second.

`Cn1cnc(S(=O)(=O)N2C[C@@H](COc3cccc(Cl)c3)[C@H](c3ccc(F)cc3)C2)c1` (relative stereo) [Example 248, 4-{[trans-3-[(3-chlorophenoxy)methyl]-4-(4-fluorophenyl)pyrrolidin-1-yl]sulfonyl}-1-methyl-1H-imidazole] and `Cn1cnc(S(=O)(=O)N2C[C@@H](CNc3ccc(C(F)(F)F)cc3Cl)[C@H](c3ccc(F)cc3)C2)c1` (relative stereo) [Example 332, 2-Chloro-N-({trans-4-(4-fluorophenyl)-1-[(1-methyl-1H-imidazol-4-yl)sulfonyl]pyrrolidin-3-yl}methyl)-4-(trifluoromethyl)aniline] cannot be ordered by Ki: ≤ 1 µM for the first, ≤ 0.1 µM for the second.

`Cn1cnc(S(=O)(=O)N2C[C@H](NCC3CNC(C(F)(F)F)CN3)[C@@H](c3ccccc3)C2)c1` (stereo partly drawn) [Example 423, (3R,4S)-1-[(1-methyl-1H-imidazol-4-yl)sulfonyl]-4-phenyl-N-{[5-(trifluoromethyl)piperazin-2-yl]methyl}pyrrolidin-3-amine] and `Cn1cnc(S(=O)(=O)N2C[C@@H](NC(=O)c3ccc(C(F)(F)F)c(Cl)c3)[C@H](c3ccccc3)C2)c1` (relative stereo) [Example 61, 3-chloro-N-{trans-1-[(1-methyl-1H-imidazol-4-yl)sulfonyl]-4-phenylpyrrolidin-3-yl}-4-(trifluoromethyl)benzamide] cannot be ordered by Ki: ≤ 10 µM for the first, ≤ 1 µM for the second.

`COc1ccc(S(=O)(=O)N2C[C@@H](NC(=O)c3cccc(C(F)(F)F)c3Cl)[C@H](c3ccccc3)C2)cn1` (relative stereo) [Example 44, 2-chloro-N-{trans-1-[(6-methoxypyridin-3-yl)sulfonyl}-4-phenylpyrrolidin-3-yl}-3-(trifluoromethyl)benzamide] and `CS(=O)(=O)N1C[C@@H](NC(=O)c2cccc(C(F)(F)F)c2Cl)[C@H](c2cc(F)c(F)cc2F)C1` (relative stereo) [Example 4, 2-chloro-N-[trans-1-(methylsulfonyl)-4-(2,4,5-trifluorophenyl)pyrrolidin-3-yl]-3-(trifluoromethyl)benzamide] cannot be ordered by Ki: ≤ 10 µM for the first, ≥ 10 µM for the second.

`Cn1cnc(S(=O)(=O)N2C[C@@H](CNc3ccc(F)c(OC(F)(F)F)c3)[C@H](c3ccc(F)cc3)C2)c1` (relative stereo) [Example 376, 4-fluoro-N-({trans-4-(4-fluorophenyl)-1-[(1-methyl-1H-imidazol-4-yl)sulfonyl]pyrrolidin-3-yl}methyl)-3-(trifluoromethoxy)aniline] and `Cn1cnc(S(=O)(=O)N2C[C@H](Nc3ccc(F)c(F)c3)[C@@H](c3ccc(F)cc3)C2)c1` [Example 418, (3R,4S)-N-(3,4-difluorophenyl)-4-(4-fluorophenyl)-1-[(1-methyl-1H-imidazol-4-yl)sulfonyl]pyrrolidin-3-amine] cannot be ordered by Ki: ≤ 1 µM for the first, ≤ 0.1 µM for the second.

`Cn1cnc(S(=O)(=O)N2C[C@@H](NCc3ccc(C(F)(F)F)cc3Cl)[C@H](c3ccccc3F)C2)c1` (relative stereo) [Example 283, trans-N-[2-chloro-4-(trifluoromethyl)benzyl] -4-(2-fluorophenyl)-1-[(1-methyl-1H-imidazol-4-yl)sulfonyl]pyrrolidin-3-amine] and `Cn1cnc(S(=O)(=O)N2C[C@@H](Nc3ccc(F)c(F)c3F)[C@H](c3ccccc3)C2)c1` (relative stereo) [Example 234, trans-1-[(1-methyl-1H-imidazol-4-yl)sulfonyl]-4-phenyl-N-(2,3,4-trifluorophenyl)pyrrolidin-3-amine] cannot be ordered by Ki: ≤ 0.1 µM for the first, ≤ 1 µM for the second.

`CCc1oc2ccccc2c1CN[C@H]1CN(S(=O)(=O)c2cn(C)cn2)C[C@@H]1c1ccccc1` [Example 534, (3R,4S)-N-[(2-ethyl-1-benzofuran-3-yl)methyl]-1-[(1-methyl-1H-imidazol-4-yl)sulfonyl]-4-phenylpyrrolidin-3-amine] and `Cn1cnc(S(=O)(=O)N2C[C@@H](Nc3cc(C#N)ccc3Cl)[C@H](c3ccccc3)C2)c1` (relative stereo) [Example 81, 4-chloro-3-({trans-1-[(1-methyl-1H-imidazol-4-yl)sulfonyl]-4-phenylpyrrolidin-3-yl}amino)benzonitrile] cannot be ordered by Ki: ≤ 1 µM for the first, ≤ 10 µM for the second.

`Cn1cnc(S(=O)(=O)N2C[C@H](Nc3cc(OCC(F)(F)F)ccn3)[C@@H](c3ccc(F)cc3)C2)c1` [Example 807, N-{(3R,4S)-4-(4-fluorophenyl)-1-[(1-methyl-1H-imidazol-4-yl)sulfonyl]pyrrolidin-3-yl}-4-(2,2,2-trifluoroethoxy)pyridin-2-amine] and `Cn1cnc(S(=O)(=O)N2C[C@@H](C(=O)c3ccc(OC(F)(F)F)cc3)[C@H](c3ccc(F)cc3)C2)c1` (relative stereo) [Example 363, {Trans-4-(4-fluorophenyl)-1-[(1-methyl-1H-imidazol-4-yl)sulfonyl]pyrrolidin-3-yl}[4-(trifluoromethoxy)phenyl]methanone] cannot be ordered by Ki: ≤ 0.01 µM for the first, ≤ 0.1 µM for the second.

`Cn1cnc(S(=O)(=O)N2C[C@H](NC(=O)Nc3ccccc3)[C@@H](c3ccc(F)cc3)C2)c1` [Example 692, 1-{(3R,4S)-4-(4-fluorophenyl)-1-[(1-methyl-1H-imidazol-4-yl)sulfonyl]pyrrolidin-3-yl}-3-phenylurea] and `Cn1cnc(S(=O)(=O)N2C[C@@H](C(=O)NCc3ccccn3)[C@H](c3ccc(F)cc3)C2)c1` (relative stereo) [Example 634, Trans-4-(4-fluorophenyl)-1-[(1-methyl-1H-imidazol-4-yl)sulfonyl] -N-(pyridin-2-ylmethyl)pyrrolidine-3-carboxamide] cannot be ordered by Ki: ≤ 1 µM for the first, ≤ 10 µM for the second.

`Cn1cnc(S(=O)(=O)N2C[C@@H](Nc3cccc(Cl)c3)[C@H](OCc3ccccc3)C2)c1` (relative stereo) [Example 400, Trans-4-(benzyloxy)-N-(3-chlorophenyl)-1-[(1-methyl-1H-imidazol-4-yl)sulfonyl]pyrrolidin-3-amine] and `C=CCO[C@@H]1CN(S(=O)(=O)c2cn(C)cn2)C[C@H]1Nc1cccc(Cl)c1` (relative stereo) [Example 402, Trans-N-(3-chlorophenyl)-1-[(1-methyl-1H-imidazol-4-yl)sulfonyl]-4-(prop-2-en-1-yloxy)pyrrolidin-3-amine] cannot be ordered by Ki: ≤ 10 µM for the first, ≤ 10 µM for the second.

`N#Cc1ccccc1S(=O)(=O)N1C[C@@H](Nc2ccc(F)cc2)[C@H](c2ccccc2)C1` (relative stereo) [Example 529, 2-({Trans-3-[(4-fluorophenyl)amino]-4-phenylpyrrolidin-1-yl}sulfonyl)benzonitrile] and `Cc1nn(C(C)C)cc1S(=O)(=O)N1CC(Nc2ccc(F)c(F)c2)C(c2ccccc2)C1` (stereo not shown) [Example 475, N-(3,4-difluorophenyl)-1-{[3-methyl-1-(propan-2-yl)-1H-pyrazol-4-yl]sulfonyl}-4-phenylpyrrolidin-3-amine] cannot be ordered by Ki: ≤ 10 µM for the first, ≤ 10 µM for the second.

`COC(=O)c1csc(S(=O)(=O)N2CC(Nc3ccc(F)c(F)c3)C(c3ccccc3)C2)c1OC` (stereo not shown) [Example 491, methyl 5-({3-[(3,4-difluorophenyl)amino]-4-phenylpyrrolidin-1-yl}sulfonyl)-4-methoxythiophene-3-carboxylate] and `Cn1cnc(S(=O)(=O)N2C[C@H](NC(=O)CCCC(C)(F)F)[C@@H](c3ccc(F)cc3)C2)c1` [Example 735, 5,5-difluoro-N-{(3R,4S)-4-(4-fluorophenyl)-1-[(1-methyl-1H-imidazol-4-yl)sulfonyl]pyrrolidin-3-yl}hexanamide] cannot be ordered by Ki: ≤ 10 µM for the first, ≤ 10 µM for the second.
